From PMC5128878 (Scientific Reports, 2016)
Several values for one entry are separate records, joined by “and”; a condition that tells them apart may be missing. Equal values may be shown once. Read-outs that look alike come from different tables or passages of the source.

Experiments:
α4β4 nAChR = target: T1, α4β4 nAChR (Rattus norvegicus, UniProt P09483+P12392); test: cell-based; assay type: cell-based; conditions: for IC50: IC50 (95% CI), ACh 10 μM
T1 construct: expressed in transfected cells; host or cells: Xenopus laevis oocytes injected with cRNA
T1 sequence (P09483 31-630): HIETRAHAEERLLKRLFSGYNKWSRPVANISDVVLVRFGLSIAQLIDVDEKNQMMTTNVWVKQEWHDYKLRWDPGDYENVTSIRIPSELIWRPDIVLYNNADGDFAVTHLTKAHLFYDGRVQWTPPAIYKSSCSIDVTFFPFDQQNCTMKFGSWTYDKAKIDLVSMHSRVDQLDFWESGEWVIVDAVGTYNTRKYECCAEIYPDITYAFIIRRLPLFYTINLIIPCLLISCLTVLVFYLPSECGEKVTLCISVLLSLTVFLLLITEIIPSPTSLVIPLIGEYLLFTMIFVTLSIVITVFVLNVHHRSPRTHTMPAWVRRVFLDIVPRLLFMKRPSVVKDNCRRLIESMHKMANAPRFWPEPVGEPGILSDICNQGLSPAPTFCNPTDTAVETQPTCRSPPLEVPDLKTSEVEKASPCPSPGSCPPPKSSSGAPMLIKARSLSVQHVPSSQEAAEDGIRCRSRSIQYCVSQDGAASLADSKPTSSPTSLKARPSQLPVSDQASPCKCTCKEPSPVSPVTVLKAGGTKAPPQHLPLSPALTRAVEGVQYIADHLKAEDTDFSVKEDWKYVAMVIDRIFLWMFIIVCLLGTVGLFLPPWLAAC
T1 sequence (P12392 21-495): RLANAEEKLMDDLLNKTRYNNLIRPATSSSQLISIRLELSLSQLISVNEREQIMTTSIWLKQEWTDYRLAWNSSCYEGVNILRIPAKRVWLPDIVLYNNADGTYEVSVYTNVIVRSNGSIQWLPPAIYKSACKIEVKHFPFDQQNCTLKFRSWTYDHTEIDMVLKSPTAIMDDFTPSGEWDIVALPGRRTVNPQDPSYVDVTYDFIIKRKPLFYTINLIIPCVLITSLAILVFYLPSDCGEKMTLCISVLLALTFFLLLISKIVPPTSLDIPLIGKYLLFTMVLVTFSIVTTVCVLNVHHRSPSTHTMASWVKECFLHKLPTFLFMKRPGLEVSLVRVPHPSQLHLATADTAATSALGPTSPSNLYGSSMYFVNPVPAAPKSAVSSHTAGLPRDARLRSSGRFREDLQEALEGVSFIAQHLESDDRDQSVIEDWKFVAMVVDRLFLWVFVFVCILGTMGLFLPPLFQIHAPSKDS
Method: (§1) Oocytes isolated from mature female Xenopus laevis were supplied by the European Xenopus Resource Centre, University of Portsmouth, UK. Oocytes were treated with collagenase (0.5 mg/ml, Sigma type 1 A) in Ca^2+-free solution (96 mM NaCl, 2 mM KCl, 1 mM MgCl2, 5 mM HEPES, 2.5 mM Na-pyruvate, 100 U/mL penicillin, 0.1 mg/mL streptomycin, pH 7.5) with shaking at 19 °C to defolliculate and remove the connective tissue surrounding the cells. After separation, oocytes were washed 7 times with modified Barth’s solution (96 mM NaCl, 2 mM KCl, 1.8 mM CaCl2, 1 mM MgCl2, 5 mM HEPES, 2.5 mM Na-pyruvate, 0.5 mM theophylline, 50 μg/mL gentamicin, pH 7.5) and kept at 19 °C in the same solution.
(§2) Healthy oocytes were injected with cRNA using a Nano-liter Injector (World Precision Instruments Inc, USA). Mixtures of nAChR subunit cRNAs were injected as follows; for heteromeric rat neuronal receptors a 1:1 ratio of α:β at 200 ng/μL; for mouse embryonic muscle a 1:1:1:1 ratio of α:β:γ:δ at 25 ng/μL; human α7 at 100 ng/μL was mixed with RIC-3 at 30 ng/μL. Each oocyte was injected with 50 nL of RNA solution. Injected oocytes were saved in Barth’s solution at 19 °C for two to three days for expression of the target protein. During this time oocytes were regularly checked to remove unhealthy ones.
(§3) Electrophysiological recordings were taken from nAChR-expressing oocytes by two-electrode voltage clamp using a Geneclamp 500 voltage clamp amplifier (Axon instruments, USA). An oocyte was placed in the perfusion chamber using a plastic Pasteur pipette and the bath was perfused (~5 mL/min) with fresh Frog Ringer solution (96 mM NaCl, 2 mM KCl, 1.8 mM CaCl2 and 5 mM HEPES, pH 7.5). Microelectrodes were pulled from borosilicate glass capillaries (Harvard GC150TF-10) using a programmable micropipette puller (Sutter P97, USA), and they had resistances between 0.5 and 2.5 MΩ when filled with 3 M KCl. The oocyte was voltage-clamped at holding potentials (VH) between −60 and −100 mV. […] Currents were recorded to a PC via a digidata 1200 analog-to-digital converter (Axon Instuments, USA) using WinEDR v3.2.6 Software (Dr John Dempster, University of Strathclyde, UK).
(§4) Graphpad Prism 6 was used for data analysis, graph plotting and curve fitting. All plotted points are the mean ± SEM obtained from 4–20 oocytes.

α3β2 nAChR = α3β2 nAChR (Rattus norvegicus, UniProt P04757+P12390); test: Two-electrode voltage clamp of ACh currents, α3β2 nAChRs expressed in Xenopus oocytes; conditions: for IC50: IC50 (95% CI), ACh 30 μM
α3β2 nAChR, sequence (P04757 26-499): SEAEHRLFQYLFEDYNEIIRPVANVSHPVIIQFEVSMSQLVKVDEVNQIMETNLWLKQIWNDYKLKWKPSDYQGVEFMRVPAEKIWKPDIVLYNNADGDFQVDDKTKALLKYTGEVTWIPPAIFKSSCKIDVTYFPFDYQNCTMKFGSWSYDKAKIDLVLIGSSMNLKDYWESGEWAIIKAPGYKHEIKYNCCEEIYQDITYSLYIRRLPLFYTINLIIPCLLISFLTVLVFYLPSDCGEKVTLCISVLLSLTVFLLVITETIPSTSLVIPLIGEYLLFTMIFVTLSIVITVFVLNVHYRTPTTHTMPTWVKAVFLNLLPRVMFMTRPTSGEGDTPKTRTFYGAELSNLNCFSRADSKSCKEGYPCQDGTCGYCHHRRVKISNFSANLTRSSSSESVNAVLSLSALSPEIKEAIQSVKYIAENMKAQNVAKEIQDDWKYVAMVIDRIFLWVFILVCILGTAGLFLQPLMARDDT
α3β2 nAChR, sequence (P12390 25-500): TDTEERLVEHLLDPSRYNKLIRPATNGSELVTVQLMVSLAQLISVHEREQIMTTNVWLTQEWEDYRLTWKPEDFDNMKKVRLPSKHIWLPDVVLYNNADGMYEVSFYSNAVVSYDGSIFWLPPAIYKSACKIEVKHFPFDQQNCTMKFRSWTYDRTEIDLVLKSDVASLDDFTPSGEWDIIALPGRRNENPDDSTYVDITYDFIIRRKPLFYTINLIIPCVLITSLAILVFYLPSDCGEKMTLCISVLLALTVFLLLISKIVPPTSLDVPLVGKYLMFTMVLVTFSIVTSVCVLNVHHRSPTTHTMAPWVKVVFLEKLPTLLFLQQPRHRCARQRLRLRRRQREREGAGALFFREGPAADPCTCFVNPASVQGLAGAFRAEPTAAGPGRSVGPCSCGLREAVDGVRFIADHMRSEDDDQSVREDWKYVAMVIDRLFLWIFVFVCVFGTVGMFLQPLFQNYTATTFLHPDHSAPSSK
Method: as §1, §2, §3, §4

[1] = tested on: nAChRs expressed by PC12 cells; conditions: patch-clamp study of PC12 cells ref 14; cited from earlier work
α3β4 nAChR = target: T2, α3β4 nAChR (Rattus norvegicus, UniProt P04757+P12392); test: cell-based; conditions: for IC50: IC50 (95% CI)
T2 construct: expressed in transfected cells; host or cells: Xenopus laevis oocytes injected with cRNA
T2 sequence (P04757 26-499): as the sequence (P04757 26-499) above
T2 sequence (P12392 21-495): as the sequence (P12392 21-495) above
Method: as §1, §2, §3, §4

α3β4(F255V) nAChR = target: T3, α3β4(F255V) nAChR (Rattus norvegicus, UniProt P04757+P12392, F275V); test: Two-electrode voltage clamp of ACh currents, α3β4(F255V) nAChRs expressed in Xenopus oocytes; assay type: cell-based; conditions: for IC50: α3β4(F255V), ACh 100 μM
T3 construct: expressed in transfected cells; host or cells: Xenopus laevis oocytes injected with cRNA
T3 sequence (P04757 26-499): as the sequence (P04757 26-499) above
T3 sequence (P12392 21-495 F275V): as the sequence (P12392 21-495) above, with F255V counted along it
Method: (§5) cDNA clones of rat neuronal nAChR subunits (α3, α4, β2 and β4) and mouse muscle subunits (α1, β1, γ and δ) were from the Salk Institute for Biological Studies (Professor Stephen Heinemann). The human α7 and RIC-3 cDNAs were provided by Professor David Sattelle (University College London).
as §1, §2, §3, §4

α4β2 nAChR = target: T4, α4β2 nAChR (Rattus norvegicus, UniProt P09483+P12390); test: cell-based; assay type: cell-based; conditions: for IC50: IC50 (95% CI), ACh 10 μM
T4 construct: expressed in transfected cells; host or cells: Xenopus laevis oocytes injected with cRNA
T4 sequence (P09483 31-630): as the sequence (P09483 31-630) above
T4 sequence (P12390 25-500): as the sequence (P12390 25-500) above
Method: as §5, §1, §2, §3, §4

α4β2(V253F) nAChR = target: T5, α4β2(V253F) nAChR (Rattus norvegicus, UniProt P09483+P12390, V277F); test: Two-electrode voltage clamp of ACh currents, α4β2(V253F) nAChRs expressed in Xenopus oocytes; assay type: cell-based; conditions: for IC50: α4β2(V253F), ACh 10 μM
T5 construct: expressed in transfected cells; host or cells: Xenopus laevis oocytes injected with cRNA
T5 sequence (P09483 31-630, stated change not applied): as the sequence (P09483 31-630) above
T5 sequence (P12390 25-500 V277F): as the sequence (P12390 25-500) above, with V253F counted along it
Method: as §5, §1, §2, §3, §4

nAChRs = test: Two-electrode voltage clamp of Xenopus oocytes expressing nAChRs, statements across tested subtypes; assay type: cell-based
Method: as §5, §1, §2, §3, §4

α7 nAChR = target: T6, α7 nAChR (Homo sapiens, UniProt P36544); test: Two-electrode voltage clamp of ACh currents, α7 nAChRs (with RIC-3) expressed in Xenopus oocytes; assay type: cell-based; conditions: for IC50: IC50 (95% CI), ACh 100 μM
T6 construct: expressed in transfected cells; host or cells: Xenopus laevis oocytes injected with cRNA
T6 sequence (P36544 23-502): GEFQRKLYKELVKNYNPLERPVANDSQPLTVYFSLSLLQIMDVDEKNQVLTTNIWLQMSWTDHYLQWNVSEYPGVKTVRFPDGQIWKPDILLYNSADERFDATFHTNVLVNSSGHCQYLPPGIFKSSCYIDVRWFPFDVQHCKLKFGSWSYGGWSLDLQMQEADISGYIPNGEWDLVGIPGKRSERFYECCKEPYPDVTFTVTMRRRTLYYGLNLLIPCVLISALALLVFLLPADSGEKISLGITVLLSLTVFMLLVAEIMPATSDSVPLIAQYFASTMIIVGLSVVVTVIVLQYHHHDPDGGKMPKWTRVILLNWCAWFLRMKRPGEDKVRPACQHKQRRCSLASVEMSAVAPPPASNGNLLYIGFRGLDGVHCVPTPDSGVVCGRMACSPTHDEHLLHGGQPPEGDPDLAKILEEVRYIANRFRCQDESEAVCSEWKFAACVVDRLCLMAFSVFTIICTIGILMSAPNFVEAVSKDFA
Method: as §1, §2, §3, §4

α1β1γδ nAChR = target: T7, α1β1γδ nAChR (Mus musculus, UniProt P02716+P04756+P04760+P09690); test: cell-based; assay type: cell-based; conditions: for IC50: IC50 (95% CI), ACh 10 μM
T7 construct: expressed in transfected cells; host or cells: Xenopus laevis oocytes injected with cRNA
T7 sequence (P04756 21-457): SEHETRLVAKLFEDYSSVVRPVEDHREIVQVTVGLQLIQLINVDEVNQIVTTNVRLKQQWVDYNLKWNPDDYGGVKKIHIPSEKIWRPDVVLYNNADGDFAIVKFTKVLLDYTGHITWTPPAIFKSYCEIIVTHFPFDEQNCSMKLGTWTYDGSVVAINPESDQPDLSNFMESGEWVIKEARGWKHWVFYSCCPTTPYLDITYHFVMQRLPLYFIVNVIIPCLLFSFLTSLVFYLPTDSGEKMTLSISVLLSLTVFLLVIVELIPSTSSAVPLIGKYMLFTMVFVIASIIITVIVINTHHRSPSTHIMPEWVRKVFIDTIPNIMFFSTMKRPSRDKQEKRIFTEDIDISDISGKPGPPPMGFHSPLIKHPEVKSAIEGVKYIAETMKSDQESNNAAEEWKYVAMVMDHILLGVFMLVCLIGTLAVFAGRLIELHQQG
T7 sequence (P09690 24-501): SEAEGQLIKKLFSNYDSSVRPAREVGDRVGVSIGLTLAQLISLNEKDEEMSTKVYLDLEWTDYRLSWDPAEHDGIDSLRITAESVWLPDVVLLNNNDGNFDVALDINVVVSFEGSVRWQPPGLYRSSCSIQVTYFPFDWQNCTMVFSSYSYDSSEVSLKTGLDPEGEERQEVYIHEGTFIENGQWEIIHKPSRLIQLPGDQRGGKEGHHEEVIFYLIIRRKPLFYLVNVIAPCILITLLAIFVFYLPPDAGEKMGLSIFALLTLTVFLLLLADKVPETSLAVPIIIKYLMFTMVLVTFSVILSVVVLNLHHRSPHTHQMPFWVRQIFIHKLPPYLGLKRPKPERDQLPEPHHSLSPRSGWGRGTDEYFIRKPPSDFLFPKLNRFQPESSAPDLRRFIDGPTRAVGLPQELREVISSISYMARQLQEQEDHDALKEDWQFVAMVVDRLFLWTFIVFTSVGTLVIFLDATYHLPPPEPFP
T7 sequence (P04760 23-519): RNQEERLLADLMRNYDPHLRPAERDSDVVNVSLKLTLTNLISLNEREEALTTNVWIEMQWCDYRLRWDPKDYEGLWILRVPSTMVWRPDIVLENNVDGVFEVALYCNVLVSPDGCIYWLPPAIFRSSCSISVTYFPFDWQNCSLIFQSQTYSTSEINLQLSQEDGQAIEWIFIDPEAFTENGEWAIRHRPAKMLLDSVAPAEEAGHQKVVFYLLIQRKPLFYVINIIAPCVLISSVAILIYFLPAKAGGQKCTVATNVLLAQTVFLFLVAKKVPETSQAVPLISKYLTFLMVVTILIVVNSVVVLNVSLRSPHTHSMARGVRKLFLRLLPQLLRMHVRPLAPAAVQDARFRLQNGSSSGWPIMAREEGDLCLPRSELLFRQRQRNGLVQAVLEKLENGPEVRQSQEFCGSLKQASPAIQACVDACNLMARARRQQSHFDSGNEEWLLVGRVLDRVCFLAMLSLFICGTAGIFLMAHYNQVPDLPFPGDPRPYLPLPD
T7 sequence (P02716 25-520): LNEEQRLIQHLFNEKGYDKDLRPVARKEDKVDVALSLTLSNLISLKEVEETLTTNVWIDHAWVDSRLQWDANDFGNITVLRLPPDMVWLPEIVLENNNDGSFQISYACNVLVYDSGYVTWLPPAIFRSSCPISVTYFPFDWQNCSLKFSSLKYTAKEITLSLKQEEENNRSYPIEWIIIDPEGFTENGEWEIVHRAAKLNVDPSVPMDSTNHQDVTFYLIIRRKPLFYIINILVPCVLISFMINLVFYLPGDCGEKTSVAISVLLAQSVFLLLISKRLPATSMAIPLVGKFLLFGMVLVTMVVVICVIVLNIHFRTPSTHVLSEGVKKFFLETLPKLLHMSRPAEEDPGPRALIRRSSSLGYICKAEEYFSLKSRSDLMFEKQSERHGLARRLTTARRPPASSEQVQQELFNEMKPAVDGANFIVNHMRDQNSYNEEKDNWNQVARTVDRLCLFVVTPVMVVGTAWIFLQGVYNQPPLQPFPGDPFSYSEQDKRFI
Method: as §1, §2, §3, §4

[2] = α3β4, after co-application of 10 μM toxin, ACh 100 μM, −80 mV
[3] = VH −60 mV, late current (1 min), read-out: IC50 (95% CI), Late
[4] = VH −60 mV, peak current, read-out: IC50 (95% CI), Peak
[5] = VH −80 mV, late current (1 min), read-out: IC50 (95% CI), Late
[6] = VH −80 mV, peak current, read-out: IC50 (95% CI), Peak
[7] = VH −100 mV, late current (1 min), read-out: IC50 (95% CI), Late
[8] = VH −100 mV, peak current, read-out: IC50 (95% CI), Peak

CCCC(=O)N[C@@H](Cc1ccc(O)cc1)C(=O)NCCCNCCCCNCCCN [PhTX-343]
IC50 (α4β4 nAChR; Late, α4β4, VH −60 mV, late current (1 min)): 170 nM | IC50 (α4β4 nAChR; Late, α4β4, VH −80 mV, late current (1 min)): 65 nM | IC50 (α4β4 nAChR; Late, α4β4, VH −100 mV, late current (1 min)): 27 nM | IC50 (α4β4 nAChR; Peak, α4β4, VH −60 mV, peak current): 970 nM | IC50 (α4β4 nAChR; Peak, α4β4, VH −80 mV, peak current): 350 nM | IC50 (α4β4 nAChR; Peak, α4β4, VH −100 mV, peak current): 290 nM | recovery of peak current after six ACh applications (36 min) (α4β4 nAChR; α4β4, 10 μM toxin, −80 mV): very limited or absent | decrease of peak current IC50 from −60 mV to VH −100 mV (α4β4 nAChR; α4β4, peak current): 3.3 fold | times less sensitive than the most sensitive subtype (α4β4 nAChR; α4β4 vs α3β4 (for PhTX-12: α1β1γδ along with α3β4), late current IC50, −80 mV): 5 times | late current IC50 lower than that for α4β2 (α4β4 nAChR; α4β4 vs α4β2, late current): ~5 fold | peak current IC50 lower than that for α4β2 (α4β4 nAChR; α4β4 vs α4β2, peak current): roughly 3 fold | IC50 (α3β2 nAChR; Late, α3β2, VH −60 mV, late current (1 min)): 1590 nM | IC50 (α3β2 nAChR; Late, α3β2, VH −80 mV, late current (1 min)): 1370 nM | IC50 (α3β2 nAChR; Late, α3β2, VH −100 mV, late current (1 min)): 370 nM | IC50 (α3β2 nAChR; Peak, α3β2, VH −60 mV, peak current): 64500 nM | IC50 (α3β2 nAChR; Peak, α3β2, VH −80 mV, peak current): 9260 nM | IC50 (α3β2 nAChR; Peak, α3β2, VH −100 mV, peak current): 3590 nM | recovery of peak current after six ACh applications (36 min) (α3β2 nAChR; α3β2, 10 μM toxin, −80 mV): very limited or absent | decrease of peak current IC50 from −60 mV to VH −100 mV (α3β2 nAChR; α3β2, peak current): 18 fold | times less sensitive than the most sensitive subtype (α3β2 nAChR; α3β2 vs α3β4 (for PhTX-12: α1β1γδ along with α3β4), late current IC50, −80 mV): 114 times | IC50 [1]: 100 nM | IC50 (α3β4 nAChR; Late, α3β4, VH −60 mV, late current (1 min), ACh 100 μM): 88 nM | IC50 (α3β4 nAChR; Late, α3β4, VH −80 mV, late current (1 min), ACh 100 μM): 12 nM | IC50 (α3β4 nAChR; Late, α3β4, VH −100 mV, late current (1 min), ACh 100 μM): 7.7 nM | IC50 (α3β4 nAChR; Peak, α3β4, VH −60 mV, peak current, ACh 100 μM): 290 nM | IC50 (α3β4 nAChR; Peak, α3β4, VH −80 mV, peak current, ACh 100 μM): 80 nM | IC50 (α3β4 nAChR; Peak, α3β4, VH −100 mV, peak current, ACh 100 μM): 77 nM | recovery of late current after six ACh applications (36 min) (α3β4 nAChR; [2]): 69 % of control | recovery of peak current after six ACh applications (36 min) (α3β4 nAChR; [2]): 82 % of control | decrease of peak current IC50 from −60 mV to VH −100 mV (α3β4 nAChR; α3β4, peak current): 3.8 fold | more potent than PhTX-12, peak current inhibition (α3β4 nAChR; α3β4, peak current, −80 mV): 33 fold | potency higher as compared to α3β2, peak current (α3β4 nAChR; α3β4 vs α3β2, peak current, −80 mV): 115 fold | increase in late current IC50 as compared to α3β4 (α3β4(F255V) nAChR; α3β4(F255V) vs α3β4, late current, −80 mV): did not see the expected increase | reduction in peak current IC50 as compared to α3β4 (α3β4(F255V) nAChR; α3β4(F255V) vs α3β4, peak current, −80 mV): 2.1 fold | IC50 (α3β4(F255V) nAChR; [3]): 74 nM | IC50 (α3β4(F255V) nAChR; [4]): 310 nM | IC50 (α3β4(F255V) nAChR; [5]): 12 nM | IC50 (α3β4(F255V) nAChR; [6]): 38 nM | IC50 (α3β4(F255V) nAChR; [7]): 5 nM | IC50 (α3β4(F255V) nAChR; [8]): 17 nM | IC50 (α4β2 nAChR; Late, α4β2, VH −60 mV, late current (1 min)): 460 nM | IC50 (α4β2 nAChR; Late, α4β2, VH −80 mV, late current (1 min)): 310 nM | IC50 (α4β2 nAChR; Late, α4β2, VH −100 mV, late current (1 min)): 80 nM | IC50 (α4β2 nAChR; Peak, α4β2, VH −60 mV, peak current): 1900 nM | IC50 (α4β2 nAChR; Peak, α4β2, VH −80 mV, peak current): 930 nM | IC50 (α4β2 nAChR; Peak, α4β2, VH −100 mV, peak current): 140 nM | recovery of peak current after six ACh applications (36 min) (α4β2 nAChR; α4β2, 10 μM toxin, −80 mV): very limited or absent | decrease of peak current IC50 from −60 mV to VH −100 mV (α4β2 nAChR; α4β2, peak current): 14 fold | times less sensitive than the most sensitive subtype (α4β2 nAChR; α4β2 vs α3β4 (for PhTX-12: α1β1γδ along with α3β4), late current IC50, −80 mV): 26 times | reduction in late current IC50 as compared to α4β2 (α4β2(V253F) nAChR; α4β2(V253F) vs α4β2, late current, −80 mV): 2.6 fold | change in peak current IC50 as compared to α4β2 (α4β2(V253F) nAChR; α4β2(V253F) vs α4β2, peak current, −80 mV): no significant change | IC50 (α4β2(V253F) nAChR; [3]): 63 nM | IC50 (α4β2(V253F) nAChR; [4]): 620 nM | IC50 (α4β2(V253F) nAChR; [5]): 120 nM | IC50 (α4β2(V253F) nAChR; [6]): 750 nM | IC50 (α4β2(V253F) nAChR; [7]): 14 nM | IC50 (α4β2(V253F) nAChR; [8]): 110 nM | effect on membrane current when applied alone (nAChRs; 100 μM applied alone, VH = −80 mV, oocytes expressing nAChRs): did not produce any effect on membrane current | surmountability of late current inhibition by high ACh concentrations (nAChRs; all nAChRs including α7 and α1β1γδ, late current, −80 mV): not surmountable | voltage dependence of inhibition (nAChRs; heteromeric nAChRs, VH −60 to −100 mV): strongly voltage-dependent | reversibility of inhibition (nAChRs; heteromeric neuronal nAChRs, 10 μM toxin, −80 mV): irreversible | IC50 (α7 nAChR; Late, α7, VH −60 mV, based on the area under the current trace (no stable late current)): 6.56 µM | IC50 (α7 nAChR; Late, α7, VH −80 mV, based on the area under the current trace (no stable late current)): 5.06 µM | IC50 (α7 nAChR; Late, α7, VH −100 mV, based on the area under the current trace (no stable late current)): 6.77 µM | IC50 (α7 nAChR; Peak, α7, VH −60 mV, peak current): 6.71 µM | IC50 (α7 nAChR; Peak, α7, VH −80 mV, peak current): 6.48 µM | IC50 (α7 nAChR; Peak, α7, VH −100 mV, peak current): 8.8 µM | voltage dependence of inhibition (α7 nAChR; homomeric α7, VH −60 to −100 mV): voltage-independent | surmountability of peak current inhibition by increasing ACh concentrations (α7 nAChR; α7, 30 μM toxin, peak current, −80 mV): surmountable | reversibility of inhibition (α7 nAChR; α7, 30 μM toxin, washing in frog Ringer solution, −80 mV): reversible after 6 min | times less sensitive than the most sensitive subtype (α7 nAChR; α7 vs α3β4 (for PhTX-12: α1β1γδ along with α3β4), late current IC50, −80 mV): 422 times | IC50 (α1β1γδ nAChR; Late, α1β1γδ, VH −60 mV, late current (1 min)): 18 µM | IC50 (α1β1γδ nAChR; Late, α1β1γδ, VH −80 mV, late current (1 min)): 12 µM and 11.9 µM | IC50 (α1β1γδ nAChR; Late, α1β1γδ, VH −100 mV, late current (1 min)): 2.44 µM | IC50 (α1β1γδ nAChR; Peak, α1β1γδ, VH −60 mV, peak current): 27.1 µM | IC50 (α1β1γδ nAChR; Peak, α1β1γδ, VH −80 mV, peak current): 15.1 µM | IC50 (α1β1γδ nAChR; Peak, α1β1γδ, VH −100 mV, peak current): 3.26 µM | times less sensitive than the most sensitive subtype (α1β1γδ nAChR; α1β1γδ vs α3β4, late current IC50, −80 mV): 992 times and 1000 times | surmountability of peak current inhibition by increasing ACh concentrations (α1β1γδ nAChR; α1β1γδ, 10 μM toxin, peak current, −80 mV): surmountable | reversibility of inhibition (α1β1γδ nAChR; α1β1γδ, 100 μM toxin, washing in frog Ringer solution, −80 mV): reversible after 6 min
